The values below come from patent publication US12365761B2, “Biodegradable ultra-pH sensitive polymers” (priority 2019, dated 2025).

In the assay the test system is TC-1 tumor model. The assay is described as follows: PSC7A nanovaccine tumor therapy, TC-1 tumor model. It is filed as in vivo, C57BL/6 mice. The settings on record: TC-1 model, s.c. at tail base, three injections, versus PBS control. An excerpt: The nanovaccine was made by physically mixing tumor specific antigenic peptides and PSC7A nanoparticles. Non-degradable PC7A based nanovaccines were used for comparison. […] Tumor growth was subsequently measured using a digital caliper and calculated as 0.5×length×width^2. Mice were sacrificed when the tumor volumes reached 2000 mm^3.
PSC7A nanoparticles were first produced and then mixed with tumor-specific antigenic peptides. Human papilloma virus (HPV) E6/E7-transfected TC-1 and murine B16-F10 melanoma tumor models were used. […] In the TC-1 model, E7 peptide antigen (E7p, […] (SEQ. No. 1)) was used. […] Most of the animals were lost within 30 days after tumor inoculation.

For GQAEPDRAHYNIVTFCCKCD [E7p], the tumor growth inhibition entry is “marginal tumor growth inhibition”.
